Measured values taken from US20240216352A1 (priority 2022, published 2024).
Several values for one entry are separate records, joined by “and”; a condition that tells them apart may be missing. Equal values may be shown once.

Tested on: participants with PPF
Test: Phase 2 study, PPF cohort: safety and blood pressure
Type: in vivo, human
Conditions: for Treatment discontinuations: 26-week treatment phase; for Nadir postdose reduction from baseline in mean seated systolic blood pressure: day 1
Method: A total of 123 participants with PPF were randomized. Participants (age ≥21 years) were randomized (1:1:1) to receive 30 mg or 60 mg Compound A or PBO twice daily for 26 weeks. […] Immunosuppressive medications (mycophenolate mofetil, mycophenolic acid, azathioprine and/or tacrolimus) were permitted only if dosing is stable for ≥6 months prior to screening. If receiving antifibrotic agents pirfenidone or nintedanib, patients had to receive a stable dosage for ≥3 months prior to screening and during the screening period; if not receiving pirfenidone or nintedanib, patients had to be naive to both drugs or not have received either 4 weeks prior to Day 1. A total of 47 (38.2%) subjects were receiving antifibrotic treatment (with or without immunosuppression therapy). Of those subjects, 34 were being treated with nintedanib and 13 with pirfenidone. Participants were stratified by usual interstitial pneumonia (UIP) pattern (presence versus absence) and background therapy (antifibrotics+/−ILD-targeted immunosuppression versus ILD-targeted immunosuppression alone versus none). UIP pattern was present in 52% of subjects and unclassifiable ILD was the most common disease categorization.
Patient is experiencing any of the following, confirmed by retest within 15 minutes: • Seated systolic blood pressure <85 mmHg • Seated diastolic blood pressure <55 mmHg • Orthostatic hypotension
Patient is experiencing symptoms that, in the investigator's opinion, could be associated with a reduction in blood pressure and is also experiencing at least one of the following, confirmed by retest within 15 minutes: • Seated systolic blood pressure <100 mmHg or seated diastolic blood pressure <60 mmHg • Decrease of seated systolic blood pressure of ≥20 mmHg from the previous visit or decrease of seated diastolic blood pressure of ≥10 mmHg from the previous visit • Orthostatic hypotension • Orthostatic tachycardia

CCCN(C)C(=O)OCc1c(-c2ccc(O[C@H]3CCC[C@H](C(=O)O)C3)c(C)n2)nnn1C [Compound A, (1S,3S)-3-((2-methyl-6-(1-methyl-5-(((methyl(propyl)carbamoyl)-oxy)methyl)-1H-1,2,3-triazol-4-yl)pyridin-3-yl)oxy)cyclohexane-1-carboxylic acid]
Hepatobiliary toxicity (PPF cohort): No hepatobiliary toxicity | Tolerability and safety findings (PPF cohort): well-tolerated, demonstrated no unexpected safety findings | Low BP thresholds (events) (PPF, 30 mg): 30% | Asymptomatic blood pressure reduction (prespecified criteria) (PPF, 30 mg BID (n = 40)): 9 (22.5) no. (%) | COVID-19 (PPF, 30 mg BID (n = 40)): 6 (15.0) no. (%) | Cough (PPF, 30 mg BID (n = 40)): 3 (7.5) no. (%) | Deaths due to TEAEs (PPF, 30 mg BID (n = 40)): 0 no. (%) | Diarrhea (PPF, 30 mg BID (n = 40)): 6 (15.0) no. (%) | Discontinuations due to TEAEs (PPF, 30 mg BID (n = 40)): 1 no. (%) and 1 (2.5) no. (%) | Dizziness (PPF, 30 mg BID (n = 40)): 0 no. (%) | Dose reductions (PPF, 30 mg BID (n = 40)): 6 (15.0) no. (%) | Dyspnea (PPF, 30 mg BID (n = 40)): 2 (5.0) no. (%) | Hypertension (PPF, 30 mg BID (n = 40)): 0 no. (%) | Hypotension (PPF, 30 mg BID (n = 40)): 4 (10.0) no. (%) | Nausea (PPF, 30 mg BID (n = 40)): 4 (10.0) no. (%) | Orthostatic hypotension (TEAE) (PPF, 30 mg BID (n = 40)): 2 (5.0) no. (%) | Orthostatic hypotension within asymptomatic blood pressure reduction (PPF, 30 mg BID (n = 40)): 6 (15.0) no. (%) | Orthostatic hypotension within symptomatic blood pressure reduction (PPF, 30 mg BID (n = 40)): 1 (2.5) no. (%) | Rash (PPF, 30 mg BID (n = 40)): 3 (7.5) no. (%) | Symptomatic blood pressure reduction (prespecified criteria) (PPF, 30 mg BID (n = 40)): 2 (5.0) no. (%) | Vomiting (PPF, 30 mg BID (n = 40)): 3 (7.5) no. (%) | ≥1 TEAE (PPF, 30 mg BID (n = 40)): 33 (82.5) no. (%) | ≥1 TEAE related to study drug (PPF, 30 mg BID (n = 40)): 7 (17.5) no. (%) | ≥1 TESAE (PPF, 30 mg BID (n = 40)): 4 (10.0) no. (%) | Treatment discontinuations (PPF, 30 mg BID): 7.5% | Nadir postdose reduction from baseline in mean seated systolic blood pressure (PPF, 30 mg): −10.7 mmHg | Asymptomatic blood pressure reduction (prespecified criteria) (PPF, 60 mg BID (n = 42)): 13 (31.0) no. (%) | COVID-19 (PPF, 60 mg BID (n = 42)): 6 (14.3) no. (%) | Cough (PPF, 60 mg BID (n = 42)): 5 (11.9) no. (%) | Deaths due to TEAEs (PPF, 60 mg BID (n = 42)): 0 no. (%) | Diarrhea (PPF, 60 mg BID (n = 42)): 3 (7.1) no. (%) | Discontinuations due to TEAEs (PPF, 60 mg BID (n = 42)): 0 no. (%) | Dizziness (PPF, 60 mg BID (n = 42)): 4 (9.5) no. (%) | Dose reductions (PPF, 60 mg BID (n = 42)): 5 (11.9) no. (%) | Dyspnea (PPF, 60 mg BID (n = 42)): 0 no. (%) | Hypertension (PPF, 60 mg BID (n = 42)): 1 (2.4) no. (%) | Hypotension (PPF, 60 mg BID (n = 42)): 3 (7.1) no. (%) | Nausea (PPF, 60 mg BID (n = 42)): 1 (2.4) no. (%) | Orthostatic hypotension (TEAE) (PPF, 60 mg BID (n = 42)): 4 (9.5) no. (%) | Orthostatic hypotension within asymptomatic blood pressure reduction (PPF, 60 mg BID (n = 42)): 11 (26.2) no. (%) | Orthostatic hypotension within symptomatic blood pressure reduction (PPF, 60 mg BID (n = 42)): 4 (9.5) no. (%) | Rash (PPF, 60 mg BID (n = 42)): 0 no. (%) | Symptomatic blood pressure reduction (prespecified criteria) (PPF, 60 mg BID (n = 42)): 6 (14.3) no. (%) | Vomiting (PPF, 60 mg BID (n = 42)): 0 no. (%) | ≥1 TEAE (PPF, 60 mg BID (n = 42)): 28 (66.7) no. (%) | ≥1 TEAE related to study drug (PPF, 60 mg BID (n = 42)): 11 (26.2) no. (%) | ≥1 TESAE (PPF, 60 mg BID (n = 42)): 5 (11.9) no. (%) | Treatment discontinuations (PPF, 60 mg BID): 4.8% | Orthostatic hypotension (asymptomatic and symptomatic) versus other groups (PPF, 60 mg group): higher in the 60 mg group than for other groups | Nadir postdose reduction from baseline in mean seated systolic blood pressure (PPF, 60 mg): −12.7 mmHg
